Source: ChEMBL document CHEMBL1158314, “Antimycobacterial cycloartanes from Borrichia frutescens” (J Nat Prod, 1996)
In brackets after ≈: the same amount, converted by molar mass.

Key:
[1] = system: Mycobacterium tuberculosis; test: Antimycobacterial activity against Mycobacterium tuberculosis H37Rv after 3 days by radiorespirometric assay; format: functional; details: 72 h
[2] = system: Vero; test: Cytotoxicity against african green monkey Vero cells after 72 hrs; format: cell-based; details: Chlorocebus sabaeus

Compound: CC(C)=C[C@H](O)C[C@@H](C)[C@H]1CC[C@@]2(C)C3=C(CC[C@]12C)[C@@]1(C)CCC(=O)C(C)(C)[C@@H]1CC3
- MIC [1]: 64 µg/mL (≈ 145 µM)
- IC50 [2]: 104 µg/mL (≈ 235 µM)

Compound: C[C@H](CC[C@H]1OC1(C)C)[C@H]1CC[C@@]2(C)[C@@H]3CC[C@H]4C(C)(C)C(=O)CC[C@@]45C[C@@]35CC[C@]12C
- MIC [1]: 8 µg/mL (≈ 18.2 µM)
- IC50 [2]: 71.8 µg/mL (≈ 163 µM)

Compound: CC(=O)O[C@H]1CC[C@]23C[C@]24CC[C@]2(C)[C@@H]([C@H](C)CC[C@H]5OC5(C)C)CC[C@@]2(C)[C@@H]4CC[C@H]3C1(C)C
- MIC [1]: > 128 µg/mL

Compound: C[C@H](CC[C@H]1OC1(C)C)[C@H]1CC[C@@]2(C)[C@@H]3CC[C@H]4C(C)(C)[C@@H](O)CC[C@@]45C[C@@]35CC[C@]12C
- MIC [1]: 8 µg/mL (≈ 18.1 µM)
- IC50 [2]: 39.8 µg/mL (≈ 89.9 µM)

Compound: CC(C)(O)[C@@H]1CC[C@](C)([C@H]2C(O)C[C@@]3(C)[C@@H]4CC[C@H]5C(C)(C)C(=O)CC[C@@]56C[C@@]46CC[C@]23C)O1 (stereo partly specified) [ARGENTATINE A]
- MIC [1]: > 128 µg/mL

Compound: C[C@@H]1CC[C@H](C(C)(C)O)O[C@H]2C[C@@]3(C)[C@@H]4CC[C@H]5C(C)(C)C(=O)CC[C@@]56C[C@@]46CC[C@]3(C)[C@@H]12 [ARGENTATINE B]
- MIC [1]: > 128 µg/mL

Compound: CC(=O)O[C@H]1C[C@@]2(C)[C@@H](C[C@@H](O)[C@H]3[C@@]4(C)CC[C@@H](O)[C@@H](C)[C@@H]4CC[C@@]32C)/C1=C(\CCC=C(C)C)C(=O)O [FUSIDIC ACID]
- MIC [1]: 4 µg/mL (≈ 7.74 µM)
- IC50 [2]: 106 µg/mL (≈ 205 µM)
